The values below come from patent publication US7319021B2, “Cell lysis composition, methods of use, apparatus and kit” (Promega Corporation, priority 2002, dated 2008).

“And” between values parts separate entries of the source, which are not always exact repeats. Identical values can stand only once.

For data set [1], the system named is E. coli cells. As to the kind of experiment: Optical density and visual turbidity of E. coli culture after treatment (Example 2). Format: cell-based. As for the experimental part: E. coli bacteria expressing His-tagged Renilla Luciferase were grown in Luria Broth [L Broth]+10 ng/ml tetracycline [Tet] [50 ml of media in a 250 ml flask] at 37° C. overnight in a shaking incubator rotating at 200 RPM. The E. coli strain was prepared by transforming E. coli with a vector expressing histidine-tagged Renilla luciferase. The vector was constructed by conventional methods. See Maniatis et al., “Molecular Cloning: A Laboratory Manual,” 2nd Edition, Cold Spring Harbor Laboratory, Cold Spring Harbor, N.Y. (1982). Following overnight culture the bacterial cells were diluted 1:100 into fresh L broth+Tet and grown to a density of 0.6 at 600 nm [OD 600 0.6] at 37C on the shaking incubator. Renilla expression was induced by addition of isopropyl-beta-D-thiogalactopyranoside (IPTG) from a 1M filter sterilized solution to a final concentration of 1 mM. The culture was grown for 4 additional hours at 37C on the shaking incubator before use. […]
900 ul of 20 mM Tris-HCl pH 7.3 and 100 ul of the corresponding solutions were added to each of 12 disposable plastic cuvettes. After the instrument background was set to zero with a 20 mM Tris-HCl pH 7.3 solution at an optical density of 600 nm (OD600), and the optical density of the solutions was measured.

For data set [2], the system named is E. coli cells. As to the kind of experiment: Release of Renilla Luciferase from E. coli (Example 2). The data set is classed as cell-based. As for the experimental part: E. coli bacteria expressing His-tagged Renilla Luciferase were grown in Luria Broth [L Broth]+10 ng/ml tetracycline [Tet] [50 ml of media in a 250 ml flask] at 37° C. overnight in a shaking incubator rotating at 200 RPM. The E. coli strain was prepared by transforming E. coli with a vector expressing histidine-tagged Renilla luciferase. The vector was constructed by conventional methods. See Maniatis et al., “Molecular Cloning: A Laboratory Manual,” 2nd Edition, Cold Spring Harbor Laboratory, Cold Spring Harbor, N.Y. (1982). Following overnight culture the bacterial cells were diluted 1:100 into fresh L broth+Tet and grown to a density of 0.6 at 600 nm [OD 600 0.6] at 37C on the shaking incubator. Renilla expression was induced by addition of isopropyl-beta-D-thiogalactopyranoside (IPTG) from a 1M filter sterilized solution to a final concentration of 1 mM. The culture was grown for 4 additional hours at 37C on the shaking incubator before use.
One ml of the Renilla luciferase expressing E. coli culture was added to each of 12 tubes, labeled 1 through 12: tubes 1-3, no further addition; tubes 4-6, 10 ul of 10 mg/ml lysozyme; tubes […], 100 ul of CLR formulation A, and; tubes 10-12, 100 ul of CLR formulation A and 10 ul of 10 mg/ml lysozyme. […]

For the substance “lysozyme: 10 mg/ml solution of lysozyme [Sigma L 6876] in 20 mM Tris-HCl buffer, pH 7.3; 10 ul per ml culture”, the OD600 in data set [1] (100 ul of treated culture in 900 ul 20 mM Tris-HCl pH 7.3, culture expressing His-tagged Renilla Luciferase) was 0.3264 and 0.3261 and 0.3033. Moreover, the “level of turbidity, visual inspection” value in data set [1] (tubes inverted 10 times) is on record as “very turbid”. The “Relative Light Units Resuspended Pellet Sample” value in data set [2] (2 ul of pellet resuspended in 800 ul) was 58.41 Relative Light Units and 60.99 Relative Light Units and 72.03 Relative Light Units. Moreover, the “Relative light Units, Supernatant Sample” value in data set [2] (2 ul of supernatant) is 0.053 Relative light Units and 0.074 Relative light Units and 0.048 Relative light Units.
